Source: patent US4215049A, “Antitumorigenic lactone derivative” (Nippon Kayaku Kabushiki Kaisha, priority 1977, dated 1980)
In brackets after ≈: the same amount, converted by molar mass.

Experiments:
[1] = tested on: Ehrlich ascites cancer cells; assay: Life-prolonging effect for mice suffering from Ehrlich ascites cancer; type: in vivo, mice (ICR/JCL); details: for Life prolongation rate: average survival days, control group indexed as 100; for life-prolonging effect for mice with Ehrlich ascites cancer (in words): in comparison with the control mice
Method: The mice of ICR/JCL species (.male., 5-week-old, 5 mice per group) were intraperitoneally inoculated with 2,000,000 pieces of Ehrlich ascites cancer cells, and the compounds of this invention were administered, starting 2 hours after inoculation, in the dosages shown in Table 5 below once a day for a total period of 10 days.
the drug treated groups as calculated with the average number of survival
days of the control group being indexed as 100.

HeLa S3 cells = assay: Inhibitory effect against growth of HeLa S3 cells (in vitro); type: cell-based; details: for IC50: 72 h, HeLa S3 cells, read-out: ID50 (the source's name); for inhibitory effect against growth of cancer (HeLa) cells (in words): low concentration
Method: The roots (0.3 kg by half-dry weight), stalks (1.6 kg by half-dry weight) and leaves (2.1 kg by half-dry weight) were ground and extracted respectively with methanol. Each liquid extract was filtered and the filtrate was concentrated under reduced pressure to obtain an oily residue containing the object compounds.
(Note) The inhibitory effect against growth of the HeLa cells was determined in the manner described below.
The HeLa S3 cells were spread on 6 cm-diameter plastic laboratory plates in the amount of 0.7×10^5 cells/plate and cultured by using an MEM medium containing 60 μg/ml of kanamycin and 10% calf serum. 2 days later, the medium was replaced with one containing the compounds of this invention. The cell population at that time was 1.58×10^5 cells/plat. After addition of the compounds, the cells were cultured for three days, and then, after removing the medium, the culture was washed with a physiological saline solution, treated with 0.05% trypsin at room temperature for about 15 minutes, and then pipetted and dispersed. The number of surviving cells was counted by a […], and percent inhibition was measured by counting the number of the living cells in the control section to determine ID50. [formula]

[2] = 7.50 mg/kg once a day for 10 days
[3] = 15.0 mg/kg once a day for 10 days

| IC50 (HeLa S3 cells; Homo sapiens, 3 days) [µg/mL] | Structure (SMILES) | Life prolongation rate [1, 2] | Life prolongation rate [1, 3] | effect of compound III compared with compounds I and II (in words) ([1]; mouse, in vivo) | inhibition at 1 µg/mL (HeLa S3 cells; Homo sapiens, HeLa S3, 72 h, 1 μg/ml, 3 days, read-out: Percent inhibition) [%] | inhibition at 2 µg/mL (HeLa S3 cells; Homo sapiens, HeLa S3, 72 h, 2 μg/ml, 3 days, read-out: Percent inhibition) [%] | inhibition at 4 µg/mL (HeLa S3 cells; Homo sapiens, HeLa S3, 72 h, 4 μg/ml, 3 days, read-out: Percent inhibition) [%] | inhibitory effect against growth of cancer (HeLa) cells (in words) (HeLa S3 cells) | life-prolonging effect for mice with Ehrlich ascites cancer (in words) [1] | inhibition at 0.375 µg/mL (HeLa S3 cells; Homo sapiens, HeLa S3, 72 h, 0.375 μg/ml, 3 days, read-out: Percent inhibition) [%] | inhibition at 0.75 µg/mL (HeLa S3 cells; Homo sapiens, HeLa S3, 72 h, 0.75 μg/ml, 3 days, read-out: Percent inhibition) [%] | inhibition at 1.5 µg/mL (HeLa S3 cells; Homo sapiens, HeLa S3, 72 h, 1.5 μg/ml, 3 days, read-out: Percent inhibition) [%] |
| --- | --- | --- | --- | --- | --- | --- | --- | --- | --- | --- | --- | --- |
|  | C=C1C(=O)OC2C=C(C)C(OC(C)=O)CC=C(C)CC(O)C12 (stereo not shown) [III] | 95 | 108 | not so conspicuous in effect as the compounds I and II |  |  |  |  |  |  |  |  |
| 1.4 (≈ 3.33 µM) | C=C1C(=O)OC2C=C(C)C(OC(C)=O)CC=C(C)CC(OC(=O)C(=CCO)CO)C12 (stereo not shown) [Compound I] | 253 | 232 |  | 29.4 | 74.9 | 100 | high inhibitory effect against growth of the cancer cells | prominent life-prolonging effect |  |  |  |
| 0.62 (≈ 1.53 µM) | C=C1C(=O)OC2C=C(C)C(OC(C)=O)CC=C(C)CC(OC(=O)C(C)=CCO)C12 (stereo not shown) [II] | 159 | 173 |  |  |  |  | high inhibitory effect against growth of the cancer cells | prominent life-prolonging effect | 28.4 | 57 | 100 |
